# Key:
# [1] = tested on: hMSCs (human mesenchymal stem cells); experiment: In vitro cell differentiation potential by calcium production (Alizarin red S staining); assay type: cell-based; details: hMSCs treated with 10 mM peptide, hard tissue forming medium, FIG. 6
# Description: To measure the cell differentiation ability of the heparin binding peptide by calcium production, 1×10^3 hMSCs (human mesenchymal stem cells) were dispensed into each well of a well-plate, and then treated with 10 mM of each of the peptides of SEQ ID NOS: 2 and 3 synthesized in Example 2. Then, the cells were cultured in a hard tissue forming medium (MSCBM medium containing 15% FBS (fetal bovine serum), […] L-ascorbic acid, 10^−7 M dexamethasone, 1% antibiotic-antimycotic solution, and 10 mM beta-glycerol phosphate) for […]. After completion of the culture, the medium was removed, and the cells were washed twice with phosphate buffered saline (PBS). Then, the cells were fixed with 90% ethanol at 4° C. for 15 minutes and washed twice with distilled water, followed by staining with 2% Alizarin red S solution (pH 4.2; Alizarin red S powder, Junsei, JAPAN) for 5 minutes.
# [2] = Binding of synthesized peptide to heparin (solid phase method, HRP-conjugated heparin binding protein, absorbance at 405 nm); details: peptide coated on 96-well plates, sodium heparin 10 μg/100 μL, FIG. 5
# Description: The synthesized peptide was dissolved in PBS at various concentrations and coated on the surface of 96-well Maxisorp microtiter plates (Nunc). Then, it was blocked with 1% BSA at 37° C. for 1 hour, and sodium heparin (10 μg/100 μL) was added to the peptide and reacted with the peptide at room temperature for 4 hours. The plate was washed three times with PBS, and then horseradish peroxidase (HRP)-conjugated heparin binding protein (Lifespan Technologies, Salt Lake City, Utah) diluted in PBS at a concentration of 1 μg/mL was reacted with the peptide at room temperature for 1 hour. To measure the binding of HRP-conjugated heparin binding protein to the peptide, ABTS was added to each well to develop color, and after 5 minutes, 1% SDS was added to each well to stop the reaction. Then, the absorbance of each well at 405 nm was measured. The absorbance of the peptide having the HRP-conjugated heparin binding protein bound thereto was calculated relative to 100% for the well surface coated with 1% BSA.
# Binding %=(absorbance of well coated with heparin binding peptide/absorbance of well coated with BSA)×100
ability to bind to heparin [2],Sequence,production of calcium [1]
,"SLYVDFSDVGW (the sequence is synthesized) [SEQ ID NO: 3, BMP-4 peptide selected from chymotrypsin cleavage sites]",lowest
high ability to bind to heparin,SQRARKKNKNCRRH (the sequence is synthesized) [SEQ ID NO: 2],highest
